The subject of assay [1] is S. aureus ATCC 13709 (Smith). Kind of assay: Murine systemic infection (septicemia) model with intraperitoneal challenge of S. aureus. Type of assay: in vivo. The settings on record: CD-1 female mice, i.v. one hour post-challenge, SA Smith septicemia, survival after 48 hours, Probit analysis. The method, then:
Murine Systemic Infection Model with Intraperitoneal Challenge of S. aureus
In the model, CD-1 female mice (18-20 grams) were injected intraperitoneally with S. aureus ATCC 13709 (Smith) (1-2×10^6/mouse) mixed with 5% hog gastric mucin, a bacterial inoculum previously established through virulence studies required to achieve 90-100% lethality within 24-48 hours. Typically, six mice were treated intravenously per dose group one hour post-challenge with either compound 101, compound 105, compound 145, compound 153, compound 166, and compound 218, tetracycline or tigecycline at doses ranging from 0.05-10 mg/kg. After 48 hours, percent survival was calculated and the dose (mg/kg) effecting 50% survival, the protective dose 50% (PD50), was reported along as calculated by Probit analysis.
The PD50 values of compound 101, compound 105, compound 145, compound 153, compound 166, and compound 218 and comparators tigecycline and tetracycline in the S. aureus ATCC 13709 mouse septicemia model are described in Table 6.

Assay [2] has as its system E. cloacae ATCC 13047 (EC108, wt). Kind of assay: MIC assay, EC108. Type of assay: cell-based. The settings on record: numeric MIC of control compounds. As to the method:
(§1) Minimum Inhibitory Concentration (MIC) Assay
(§2) MICs were determined according to the Clinical and Laboratory Standards Institute (CLSI) guidances (e.g., CLSI. Performance standards for antimicrobial susceptibility testing; nineteenth information supplement. CLSI document M100-S19, CLSI, 940 West Valley Road, Suite 1400, Wayne, Pa. 19087-1898, USA, 2009). Briefly, frozen bacterial strains were thawed and subcultured onto Mueller Hinton Broth (MHB) or other appropriate media (Streptococcus requires blood and Haemophilus requires hemin and NAD). Following incubation overnight, the strains were subcultured onto Mueller Hinton Agar and again incubated overnight. […] Isolated colonies were selected to prepare a starting inoculum equivalent to a 0.5 McFarland standard. The starting inoculum was diluted 1:125 using MHB for further use. Test compounds were prepared by dilution in sterile water to a final concentration of 5.128 mg/mL. Antibiotics (stored frozen, thawed and used within 3 hours of thawing) and compounds were further diluted to the desired working concentrations.
(§3) The assays were run as follows. Fifty μL of MHB was added to wells 2-12 of a 96-well plate. One hundred μL of appropriately diluted antibiotics was added to well 1. Fifty μL of antibiotics was removed from well 1 and added to well 2 and the contents of well 2 mixed by pipetting up and down five times. Fifty μL of the mixture in well 2 was removed and added to well 3 and mixed as above. Serial dilutions were continued in the same manner through well 12. Fifty μL was removed from well 12 so that all contained 50 μL. Fifty μL of the working inoculum was then added to all test wells. A growth control well was prepared by adding 50 μL of working inoculum and 50 μL of MHB to an empty well. The plates were then incubated at 37° C. overnight, removed from the incubator and each well was read on a plate reading mirror. The lowest concentration (MIC) of test compound that inhibited the growth of the bacteria was recorded.
(§4) Fifteen bacterial strains, listed below, were examined in minimum inhibitory concentration (MIC) assays.

The subject of assay [3] is K. pneumoniae ATCC 13883 (KP109, wt). Kind of assay: MIC assay, KP109. The settings on record: numeric MIC of control compounds. Type of assay: cell-based. The method, then:
as §1, §2, §3, §4

Assay [4] has as its system E. coli ATCC 25922 (EC107, wt, control). Put plainly: MIC assay, EC107. Type of assay: cell-based. The settings on record: numeric MIC of control compounds. The method, then:
as §1, §2, §3, §4

Assay [5] deals with P. aeruginosa ATCC 27853 (PA111, wt, control). Kind of assay: MIC assay, PA111. It counts as cell-based. The settings on record: numeric MIC of control compounds. As to the method:
as §1, §2, §3, §4

Assay [6] concerns A. baumanii ATCC 19606 (AB110, wt). Put plainly: MIC assay, AB110. It counts as cell-based. As to conditions: numeric MIC of control compounds. As to the method:
as §1, §2, §3, §4

The structures appear in SMILES notation. Some results are limits rather than exact numbers.

Here are results for nine molecules from patent US9624166B2, “Tetracycline compounds” (Tetraphase Pharmaceuticals, Inc., priority 2009, dated 2017).

Take `COc1cc(NC(=O)CN(C)C)c(O)c2c1C[C@H]1C[C@H]3[C@H](N(C)C)C(O)=C(C(N)=O)C(=O)[C@@]3(O)C(O)=C1C2=O` [Compound 105]: the “PD50 (protective dose 50%, dose effecting 50% survival)” value in assay [1] was 0.25 mg/kg.
In the case of `COc1cc(NS(=O)(=O)CC(C)C)c(O)c2c1C[C@H]1C[C@H]3[C@H](N(C)C)C(O)=C(C(N)=O)C(=O)[C@@]3(O)C(O)=C1C2=O` [Compound 166], the “PD50 (protective dose 50%, dose effecting 50% survival)” value in assay [1] amounted to 4.3 mg/kg.
On to `CN(C)c1cc(NC(=O)CNC(C)(C)C)c(O)c2c1C[C@H]1C[C@H]3[C@H](N(C)C)C(O)=C(C(N)=O)C(=O)[C@@]3(O)C(O)=C1C2=O` [Tigecycline, tigecycline], for which the MIC EC108 in assay [2] was determined as 0.25 mg/L. The “PD50 (protective dose 50%, dose effecting 50% survival)” value in assay [1] came to 0.97 mg/kg. Further, in assay [3], the MIC KP109 is 0.125 mg/L. Also, the MIC EC107 in assay [4] was 0.03 mg/L. Besides, the MIC PA111 in assay [5] was 8 mg/L. Moreover, the MIC AB110 in assay [6] stood at 0.25 mg/L.
With `COc1cc(NS(=O)(=O)c2ccccc2)c(O)c2c1C[C@H]1C[C@H]3[C@H](N(C)C)C(O)=C(C(N)=O)C(=O)[C@@]3(O)C(O)=C1C2=O` [Compound 153], in assay [1], the “PD50 (protective dose 50%, dose effecting 50% survival)” value is on record as above 10 mg/kg.
`CN(C)[C@@H]1C(O)=C(C(N)=O)C(=O)[C@@]2(O)C(O)=C3C(=O)c4c(O)cccc4[C@@](C)(O)[C@H]3C[C@@H]12` [Tetracycline, tetracycline]: the “PD50 (protective dose 50%, dose effecting 50% survival)” value in assay [1] is listed as 1.0 mg/kg.
With `CN(C)c1ccc(O)c2c1C[C@H]1C[C@H]3[C@H](N(C)C)C(O)=C(C(N)=O)C(=O)[C@@]3(O)C(O)=C1C2=O` [Minocycline], the MIC EC108 in assay [2] is 2 mg/L. Besides, the MIC KP109 in assay [3] came out at 1 mg/L. Further, the MIC EC107 in assay [4] worked out at 0.5 mg/L. Moreover, the MIC PA111 in assay [5] stood at 16 mg/L. Besides, the MIC AB110 in assay [6] stood at 0.06 mg/L.
Take `CCN(C)CC(=O)Nc1cc(OC(F)(F)F)c2c(c1O)C(=O)C1=C(O)[C@]3(O)C(=O)C(C(N)=O)=C(O)[C@@H](N(C)C)[C@@H]3C[C@@H]1C2` [Compound 218]: the “PD50 (protective dose 50%, dose effecting 50% survival)” value in assay [1] stood at 1.4 mg/kg.
With `COc1cc(NC(=O)CN2CCCC2)c(O)c2c1C[C@H]1C[C@H]3[C@H](N(C)C)C(O)=C(C(N)=O)C(=O)[C@@]3(O)C(O)=C1C2=O` [Compound 101], in assay [1], the “PD50 (protective dose 50%, dose effecting 50% survival)” value is given as 0.36 mg/kg.
As for `CN(C)[C@@H]1C(O)=C(C(N)=O)C(=O)[C@@]2(O)C(O)=C3C(=O)c4c(O)cccc4C[C@H]3C[C@@H]12` [Sancycline], the MIC EC108 in assay [2] came out at 8 mg/L. In addition, the MIC KP109 in assay [3] turned out to be 8 mg/L. Also, the MIC EC107 in assay [4] was 8 mg/L. Further, the MIC PA111 in assay [5] is above 32 mg/L. In addition, the MIC AB110 in assay [6] was 0.25 mg/L.
